Data from patent US11174243B2, “Succinate forms and compositions of Bruton's tyrosine kinase inhibitors” (Sunesis Pharmaceuticals, Inc., priority 2016, dated 2021).

Tests used:
human recombinant WT BTK = human recombinant WT BTK (Homo sapiens, UniProt Q06187); experiment: FRET recombinant kinase assay, WT BTK; format: biochemical
primary CLL B cells = experiment: Viability of primary patient CLL cells (Annexin V and propidium iodide flow cytometry); format: cell-based; conditions: Homo sapiens, B-cell, 48 hours, read-out: viability, that of the untreated condition
Description: (§1) Methods: Primary CLL B cells were isolated from the whole blood of consented patients by FICOLL density centrifugation and rosette-sep negative selection. Annexin V and propidium iodide flow cytometry was used to measure patient CLL cell viability and 7AAD was used to measure viability in stromal co-culture. CD40 and CD86 expression was evaluated via flow cytometry subsequent to sustained 3.2 μM CpG stimulation. BCR signaling in primary CLL cells was investigated by immunoblot succeeding 1 hour treatment and following 1 hour or 24 hours of incubation with Compound 1 in XLA cell lines. MTS values were read after 24 hours of drug incubation. ITK inhibition was investigated via immunoblot after stimulation with anti-CD3 and anti-CD28 and incubation with Compound 1 for 1 hour. Compound 1 was used at a concentration of 1 μM in preclinical studies unless otherwise noted.

[1] = system: primary CLL cells in the presence of HS5 stromal protection; experiment: Viability of primary CLL cells in stromal co-culture (7AAD); format: cell-based; conditions: Homo sapiens, CLL cell, 48 hours, read-out: decrease of viability
Description: as §1

TEC = molecular target: T1, TEC (Homo sapiens, UniProt P42680); experiment: In vitro kinase assay, TEC
T1 sequence (P42680 1-631): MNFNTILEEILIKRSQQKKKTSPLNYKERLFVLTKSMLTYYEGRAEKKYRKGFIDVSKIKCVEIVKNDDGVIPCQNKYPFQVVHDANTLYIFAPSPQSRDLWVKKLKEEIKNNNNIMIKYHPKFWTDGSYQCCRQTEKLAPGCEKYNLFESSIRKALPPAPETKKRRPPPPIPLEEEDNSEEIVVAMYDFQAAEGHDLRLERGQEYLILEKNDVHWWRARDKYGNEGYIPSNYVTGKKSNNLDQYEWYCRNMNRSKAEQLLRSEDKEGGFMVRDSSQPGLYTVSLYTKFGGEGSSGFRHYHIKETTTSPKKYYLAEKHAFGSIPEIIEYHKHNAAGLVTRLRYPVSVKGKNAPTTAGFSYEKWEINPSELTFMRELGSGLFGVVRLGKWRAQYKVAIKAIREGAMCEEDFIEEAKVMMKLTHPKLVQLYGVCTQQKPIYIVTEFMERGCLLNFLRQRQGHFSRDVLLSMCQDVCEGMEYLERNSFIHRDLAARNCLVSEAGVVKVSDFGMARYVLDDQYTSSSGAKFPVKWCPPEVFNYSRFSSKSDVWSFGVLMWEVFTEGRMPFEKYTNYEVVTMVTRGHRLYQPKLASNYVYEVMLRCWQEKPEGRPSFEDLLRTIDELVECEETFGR

BMX = molecular target: T2, BMX (Homo sapiens, UniProt P51813); experiment: Kinase selectivity, BMX (Kd)
T2 sequence (P51813 1-675): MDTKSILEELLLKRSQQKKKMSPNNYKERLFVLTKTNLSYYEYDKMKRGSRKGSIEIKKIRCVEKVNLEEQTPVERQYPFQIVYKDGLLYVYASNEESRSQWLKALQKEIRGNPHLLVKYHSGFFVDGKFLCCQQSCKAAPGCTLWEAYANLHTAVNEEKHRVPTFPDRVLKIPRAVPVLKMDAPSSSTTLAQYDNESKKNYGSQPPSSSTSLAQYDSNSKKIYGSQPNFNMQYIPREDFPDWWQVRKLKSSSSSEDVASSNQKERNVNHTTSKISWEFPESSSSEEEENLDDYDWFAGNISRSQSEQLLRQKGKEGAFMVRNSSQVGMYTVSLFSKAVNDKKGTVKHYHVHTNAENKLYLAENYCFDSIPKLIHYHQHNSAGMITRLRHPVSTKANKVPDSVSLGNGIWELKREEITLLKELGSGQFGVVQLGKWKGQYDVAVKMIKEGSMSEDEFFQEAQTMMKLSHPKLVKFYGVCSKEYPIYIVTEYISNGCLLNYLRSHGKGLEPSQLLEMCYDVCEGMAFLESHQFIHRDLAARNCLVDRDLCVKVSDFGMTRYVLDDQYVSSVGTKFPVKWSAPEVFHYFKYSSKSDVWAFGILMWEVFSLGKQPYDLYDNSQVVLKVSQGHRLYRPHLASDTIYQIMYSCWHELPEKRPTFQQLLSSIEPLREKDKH

[2] = Phase 1a single-dose study in humans: safety; format: in vivo, human
Description: A first-in-human Phase 1a randomized, double-blind, placebo-controlled, single-dose study, was conducted in 3 stages: In Stage 1, four sequential cohorts of 8 subjects each were randomly assigned to receive progressively higher single oral administrations of Compound 2 at doses of 50, 100, 200, and 300 mg (n=6 per cohort; 3 males and 3 females) or placebo (n=2 per cohort; 1 male and 1 female).
The primary endpoint of safety was assessed by monitoring adverse events (AEs), laboratory abnormalities, and cardiac findings (ECG). Secondary endpoints included evaluation of the PK parameters of area under the plasma concentration-time curve (AUC), maximum plasma concentration (Cmax), time of maximum concentration (Tmax), apparent volume of distribution (Vd/F), terminal elimination half-life (t1/2), terminal elimination rate constant (λz), and apparent clearance (Cl/F) as well as the PD parameter of BTK inhibition in whole blood.

Single-dose PK in monkey = format: in vivo; conditions: male, cynomolgus monkey, plasma
Description: A series of single-dose PK studies were conducted in rat, dog, and monkey to investigate the plasma PK of Compound 2 following single oral and single intravenous (IV) administration of Compound 2.
The PK of Compound 2 was studied in the male cynomolgus monkey (n=3) following single IV administration of Compound 2 at 1 mg/kg and single oral administration at 5 mg/kg (DRN105-0042). Following each administration, serial blood samples were collected at 0.08, 0.25, 0.5, 1, 2, 4, 7, 16, and 24 hours postdose.

[3] = 1 mg/kg, IV, dose 1, 70% PEG400/H2O, free base measured
[4] = 5 mg/kg, PO, dose 5, 0.1% CMC/0.2% Tween, free base measured

Sequence of human recombinant WT BTK (Q06187 whole entry): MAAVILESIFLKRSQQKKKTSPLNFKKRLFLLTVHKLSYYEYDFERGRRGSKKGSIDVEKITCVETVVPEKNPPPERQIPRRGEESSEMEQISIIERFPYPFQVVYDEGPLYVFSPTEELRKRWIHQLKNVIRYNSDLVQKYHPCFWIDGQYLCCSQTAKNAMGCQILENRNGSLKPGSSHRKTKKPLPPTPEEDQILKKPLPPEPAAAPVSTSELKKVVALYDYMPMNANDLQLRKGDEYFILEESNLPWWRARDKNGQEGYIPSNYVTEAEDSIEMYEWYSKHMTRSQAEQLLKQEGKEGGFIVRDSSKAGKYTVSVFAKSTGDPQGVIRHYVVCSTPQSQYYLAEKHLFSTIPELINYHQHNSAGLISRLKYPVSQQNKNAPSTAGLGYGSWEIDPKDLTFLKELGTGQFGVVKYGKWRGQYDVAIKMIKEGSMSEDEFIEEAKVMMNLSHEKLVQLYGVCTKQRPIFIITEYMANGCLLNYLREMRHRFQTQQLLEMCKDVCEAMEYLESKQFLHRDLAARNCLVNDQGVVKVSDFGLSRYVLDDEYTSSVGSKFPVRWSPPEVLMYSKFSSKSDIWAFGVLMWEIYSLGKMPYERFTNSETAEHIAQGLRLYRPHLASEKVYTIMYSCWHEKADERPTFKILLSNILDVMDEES

IC50 (human recombinant WT BTK) | IC50 (TEC) | Kd (BMX) | AUC(0-inf) (Single-dose PK in monkey; [3]) | C0 (Single-dose PK in monkey; [3]) | half-life (Single-dose PK in monkey; [3]) | AUC(0-inf) (Single-dose PK in monkey; [4]) | Cmax (Single-dose PK in monkey; [4]) | Tmax (Single-dose PK in monkey; [4]) | bioavailability (Single-dose PK in monkey; 5 mg/kg, PO, dose 5, 0.1% CMC/0.2% Tween, read-out: % F (oral bioavailability)) | Compound | viability at 0.1 µM (primary CLL B cells; 0.1 μM) | viability at 1 µM (primary CLL B cells; 1.0 μM) | viability at 10 µM (primary CLL B cells; 10.0 μM) | cytotoxicity at 1 µM [1] | subjects with treatment-emergent AEs (TEAEs) ([2]; 24 subjects, single oral doses 50-300 mg, 8 subjects) | subjects with treatment-related TEAEs ([2]; 24 subjects, single oral doses 50-300 mg, six subjects) | Grade 3 or higher AEs ([2]; single oral doses) | SAEs ([2]; single oral doses) | dose-dependent toxicity ([2]; single oral doses 50-300 mg)
4.6 nM | 19 nM | ≥ 200 nM | – | – | – | – | – | – | – | NC(=O)[C@H]1CCN(c2ncnc(N)c2F)C[C@@H]1N1CCC[C@@H](Nc2cc(Cl)cc(C(F)(F)F)c2)C1=O [Compound 1, (3R,3′R,4′S)-1′-(6-amino-5-fluoropyrimidin-4-yl)-3-((3-chloro-5-(trifluoromethyl)phenyl)amino)-2-oxo-[1,3′-bipiperidine]-4′-carboxamide] | 96.7% | 96.1% | 88.1% | 5.5% | – | – | – | – | –
– | – | – | 1920 ng·h/mL | 1600 ng/mL | 1.9 h | 3220 ng·h/mL | 1400 ng/mL | 1.5 h | 33% | NC(=O)[C@H]1CCN(c2ncnc(N)c2F)C[C@@H]1N1CCC[C@@H](Nc2cc(Cl)cc(C(F)(F)F)c2)C1=O [Compound 2] | – | – | – | – | 33% | 25% | No Grade 3 or higher AEs were reported | No SAEs were reported | No obvious pattern of dose-dependent toxicity was observed
